Source: patent publication US20230338543A1, “GAMMA-HYDRO[…] AND PROCESSES FOR MAKING AND USING THEM” (Zevra Therapeutics, Inc., priority 2022, published 2023)

Test: Pharmacokinetics of GHB in plasma after oral gavage of GHB delivering compounds in rats; relative oral bioavailability vs sodium oxybate
Conditions: vehicle water; for % AUC0-4 hr, relative oral bioavailability vs sodium oxybate / % Cmax, relative oral bioavailability vs sodium oxybate: mean conjugate PK parameter/mean comparator PK parameter
[1] = dose equivalent to 80 mg/kg NaGHB (extrapolated to 100 mg/kg)
[2] = dose equivalent to 80 mg/kg NaGHB, data extrapolated to 100 mg/kg
[3] = molar equivalent of 100 mg/kg NaGHB

Row | Compound | % AUC0-4 hr, relative oral bioavailability vs sodium oxybate [1] | % Cmax, relative oral bioavailability vs sodium oxybate [1] | AUC0-4 hr of GHB in plasma [2] | Cmax of GHB in plasma [2] | Tmax of GHB in plasma (dose equivalent to 80 mg/kg NaGHB) | AUC0-4 hr of GHB in plasma [3] | Cmax of GHB in plasma [3] | Tmax of GHB in plasma [3] | % AUC0-4 hr, relative oral bioavailability vs sodium oxybate [3] | % Cmax, relative oral bioavailability vs sodium oxybate [3]
1 | CCOC(=O)OCCCC(=O)O [O-(ethoxycarbonyl)-GHB] | 54% | 51% | 19.4 ng·h/mL | 15.0 ng/mL | 21 min |  |  |  |  | 
2 | O=C1CCCO1 [GBL] |  |  |  |  |  | 9.04 ng·h/mL | 15.4 ng/mL | 15 min | 27% | 70%
